Laboratory results published in patent US8618082B2, “Lupeol anti-tumor agent and uses thereof” (Wisconsin Alumni Research Foundation, priority 2004, dated 2013).
“Also recorded” adds a separate entry of the source.

System: PARP, acinus, Bcl2, Bax, Caspase 7 in LNCaP cells
Test: PARP cleavage and apoptosis protein expression in LNCaP cells (western blot)
Type: cell-based, human
Experimental: FIG. 12 depicts effect of Lupeol treatment on PARP cleavage and on protein expression of acinus, in LNCaP cells. Cells were treated with specified concentrations of Lupeol for 48 h, harvested and total cell lysates were prepared. PARP cleavage and the expression of acinus, were determined by western blot analysis. Equal loading was confirmed by stripping immunoblots and reprobing them for β-actin. The immunoblots shown here are representative of three independent experiments with similar results.

With C=C(C)[C@@H]1CC[C@]2(C)CC[C@]3(C)[C@H](CC[C@@H]4[C@@]5(C)CC[C@H](O)C(C)(C)[C@@H]5CC[C@]43C)[C@@H]12 [Lupeol, Lup-20(29)-en-3β-ol] the “Bcl2, Bax and Caspase 7 protein expression” value was “no change” and the “cleavage of PARP and Acinus protein” value (48 hours) was “induce the cleavage of PARP protein and degradation of Acinus protein; also recorded: induced cleavage of PARP and Acinus protein”.
